Consider two compounds from US6811766B1, “Ultrasound imaging with contrast agent targeted to microvasculature and a vasodilator drug” (Amersham Health AS, priority 1997, dated 2004).

Test [1] deals with healthy myocardial tissue. The note with it: adenosine vasodilatation; cited from earlier work.
A short description of test [2]: Heart rate under continuous dobutamine infusion. The class given is in vivo. The note with it: dog, continuous dobutamine infusion 15 μg/kg/min, stable effect; normal 100 beats per minute. Here is the method: Example 1 was repeated except that a continuous infusion of dobutamine at a rate of 15 μg/kg/min was administered in place of adenosine. After a stable dobutamine effect consisting of an increase in heart rate from the normal 100 beats per minute to 150 beats per minute was obtained, the microbubble dispersion and the emulsion were intravenously injected from two syringes as a simultaneous bolus. Infusion of dobutamine was continued for another 2 minutes after the contrast agent injection.

For the compound `Nc1ncnc2c1ncn2[C@@H]1O[C@H](CO)[C@@H](O)[C@H]1O` [adenosine], in test [1], the “increase of coronary blood flow in healthy myocardial tissue” value is given as “more than 400%”.
Regarding `CC(CCc1ccc(O)cc1)NCCc1ccc(O)c(O)c1` (centres unmarked) [dobutamine], the heart rate in test [2] came to 150 beats per minute.
